Test results taken from PubChem BioAssay AID1963975 (Molecular Pharmacology Branch, DTP, NCI, 2024).

Test system: 624824-186-R-J2-PDC multicell spheroids, viability
Assay: Anticancer human tumor 624824-186-R-J2-PDC patient-derived colon adenocarcinoma cell line growth inhibition [PI3K]
Conditions: for IC50: curve of first compound; for viability, T/C: stronger effect = lower value
Outline: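 Combination activity was assessed by viability in multicellular tumor spheroids carrying HUVEC and MSC components. Agents were tested with PI3K inhibitors from a Cmax-based top dose (or 10 microM) downward in half-log increments.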

[1] = second compound 0.0316 µM, first compound 0.0316 µM
[2] = second compound 0.0316 µM, first compound 0.1 µM
[3] = second compound 0.0316 µM, first compound 0.316 µM
[4] = second compound 0.0316 µM, first compound 1 µM
[5] = second compound 0.0316 µM, first compound 3.16 µM
[6] = second compound 0.0316 µM, first compound 10 µM
[7] = second compound 0.1 µM, first compound 0.0316 µM
[8] = second compound 0.1 µM, first compound 0.1 µM
[9] = second compound 0.1 µM, first compound 0.316 µM
[10] = second compound 0.1 µM, first compound 1 µM
[11] = second compound 0.1 µM, first compound 3.16 µM
[12] = second compound 0.1 µM, first compound 10 µM
[13] = second compound 0.316 µM, first compound 0.0316 µM
[14] = second compound 0.316 µM, first compound 0.1 µM
[15] = second compound 0.316 µM, first compound 0.316 µM
[16] = second compound 0.316 µM, first compound 1 µM
[17] = second compound 0.316 µM, first compound 3.16 µM
[18] = second compound 0.316 µM, first compound 10 µM
[19] = second compound 1 µM, first compound 0.0316 µM
[20] = second compound 1 µM, first compound 0.1 µM
[21] = second compound 1 µM, first compound 0.316 µM
[22] = second compound 1 µM, first compound 1 µM
[23] = second compound 1 µM, first compound 3.16 µM
[24] = second compound 1 µM, first compound 10 µM
[25] = second compound 3.16 µM, first compound 0.0316 µM
[26] = second compound 3.16 µM, first compound 0.1 µM
[27] = second compound 3.16 µM, first compound 0.316 µM
[28] = second compound 3.16 µM, first compound 1 µM
[29] = second compound 3.16 µM, first compound 3.16 µM
[30] = second compound 3.16 µM, first compound 10 µM
[31] = second compound 10 µM, first compound 0.0316 µM
[32] = second compound 10 µM, first compound 0.1 µM
[33] = second compound 10 µM, first compound 0.316 µM
[34] = second compound 10 µM, first compound 1 µM
[35] = second compound 10 µM, first compound 3.16 µM
[36] = second compound 10 µM, first compound 10 µM
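Further: spheroids exposed to agents for 7 days before viability read.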
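Wherever viability, T/C is given: 100% = DMSO vehicle treated spheroids.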

C=CC(=O)N1CCN(c2nc(=O)n(-c3c(C)ccnc3C(C)C)c3nc(-c4c(O)cccc4F)c(F)cc23)C(C)C1 (stereo unspecified) + Cc1nc(NC(=O)N2CCCC2C(N)=O)sc1-c1ccnc(C(C)(C)C(F)(F)F)c1
IC50 (second compound 0.0316 µM): > 10 µM | IC50 (second compound 0.1 µM): > 10 µM | IC50 (second compound 0.316 µM): > 10 µM | IC50 (second compound 1 µM): > 10 µM | IC50 (second compound 3.16 µM): > 10 µM | IC50 (second compound 10 µM): > 10 µM | viability, T/C [1]: 98% | viability, T/C [2]: 71.2% | viability, T/C [3]: 101% | viability, T/C [4]: 101% | viability, T/C [5]: 92.8% | viability, T/C [6]: 100% | viability, T/C [7]: 91.9% | viability, T/C [8]: 107% | viability, T/C [9]: 105% | viability, T/C [10]: 80% | viability, T/C [11]: 93.9% | viability, T/C [12]: 101% | viability, T/C [13]: 112% | viability, T/C [14]: 87.8% | viability, T/C [15]: 91.2% | viability, T/C [16]: 79.9% | viability, T/C [17]: 90.8% | viability, T/C [18]: 87% | viability, T/C [19]: 86.2% | viability, T/C [20]: 79.5% | viability, T/C [21]: 70.4% | viability, T/C [22]: 84.9% | viability, T/C [23]: 85.2% | viability, T/C [24]: 67.5% | viability, T/C [25]: 86.8% | viability, T/C [26]: 88.1% | viability, T/C [27]: 92% | viability, T/C [28]: 83% | viability, T/C [29]: 82.6% | viability, T/C [30]: 93.9% | viability, T/C [31]: 79.2% | viability, T/C [32]: 86.5% | viability, T/C [33]: 79.5% | viability, T/C [34]: 91.5% | viability, T/C [35]: 84.1% | viability, T/C [36]: 77.2%

CC(Cn1ccc(-c2ccc(C#N)c(Cl)c2)n1)NC(=O)c1cc(C(C)O)[nH]n1 (stereo unspecified) + Cc1nc(NC(=O)N2CCCC2C(N)=O)sc1-c1ccnc(C(C)(C)C(F)(F)F)c1
IC50 (second compound 0.0316 µM): > 10 µM | IC50 (second compound 0.1 µM): > 10 µM | IC50 (second compound 0.316 µM): > 10 µM | IC50 (second compound 1 µM): > 10 µM | IC50 (second compound 3.16 µM): > 10 µM | IC50 (second compound 10 µM): > 10 µM | viability, T/C [1]: 85.3% | viability, T/C [2]: 111% | viability, T/C [3]: 70.8% | viability, T/C [4]: 92.2% | viability, T/C [5]: 93.3% | viability, T/C [6]: 114% | viability, T/C [7]: 102% | viability, T/C [8]: 76.3% | viability, T/C [9]: 74.3% | viability, T/C [10]: 76.6% | viability, T/C [11]: 88.2% | viability, T/C [12]: 90% | viability, T/C [13]: 96.9% | viability, T/C [14]: 90.5% | viability, T/C [15]: 86.1% | viability, T/C [16]: 76.9% | viability, T/C [17]: 82.5% | viability, T/C [18]: 85.7% | viability, T/C [19]: 88.6% | viability, T/C [20]: 69.9% | viability, T/C [21]: 71.5% | viability, T/C [22]: 71.6% | viability, T/C [23]: 87.9% | viability, T/C [24]: 86.9% | viability, T/C [25]: 80.5% | viability, T/C [26]: 93% | viability, T/C [27]: 89.7% | viability, T/C [28]: 78.7% | viability, T/C [29]: 80.2% | viability, T/C [30]: 84.7% | viability, T/C [31]: 64.8% | viability, T/C [32]: 65.2% | viability, T/C [33]: 74.8% | viability, T/C [34]: 61.4% | viability, T/C [35]: 69.6% | viability, T/C [36]: 66.6%

Cn1nccc1Nc1nccc(-c2ccn(C(CO)c3ccc(Cl)c(F)c3)c(=O)c2)n1 (stereo unspecified) + Cc1nc(NC(=O)N2CCCC2C(N)=O)sc1-c1ccnc(C(C)(C)C(F)(F)F)c1
IC50 (second compound 0.0316 µM): > 10 µM | IC50 (second compound 0.1 µM): > 10 µM | IC50 (second compound 0.316 µM): > 10 µM | IC50 (second compound 1 µM): > 10 µM | IC50 (second compound 3.16 µM): 1.56 µM | IC50 (second compound 10 µM): 0.276 µM | viability, T/C [1]: 88.2% | viability, T/C [2]: 79.8% | viability, T/C [3]: 72.2% | viability, T/C [4]: 92% | viability, T/C [5]: 95.7% | viability, T/C [6]: 101% | viability, T/C [7]: 68.3% | viability, T/C [8]: 68.6% | viability, T/C [9]: 78.5% | viability, T/C [10]: 81.4% | viability, T/C [11]: 108% | viability, T/C [12]: 83.2% | viability, T/C [13]: 90.1% | viability, T/C [14]: 72.8% | viability, T/C [15]: 74% | viability, T/C [16]: 91.9% | viability, T/C [17]: 96.3% | viability, T/C [18]: 81.9% | viability, T/C [19]: 82.9% | viability, T/C [20]: 79% | viability, T/C [21]: 65.5% | viability, T/C [22]: 74.9% | viability, T/C [23]: 76.3% | viability, T/C [24]: 52.3% | viability, T/C [25]: 80.5% | viability, T/C [26]: 61.6% | viability, T/C [27]: 65% | viability, T/C [28]: 54.6% | viability, T/C [29]: 44.2% | viability, T/C [30]: 37.3% | viability, T/C [31]: 66.4% | viability, T/C [32]: 58.6% | viability, T/C [33]: 47.8% | viability, T/C [34]: 37.8% | viability, T/C [35]: 19.2% | viability, T/C [36]: 5.96%
